Measured values as given in EP0215136B1, “Hexetidin-containing therapeutically active agent, method for its preparation and its use as a vaginal disinfectant” (Artesan Pharma Gesellschaft mit beschränkter Haftung, priority 1985, dated 1987).

What was measured:
[1] = cited from earlier work
[2] = cited from earlier work; remark: listed apart in the source
[3] = Stability of hexetidine in aqueous solution; format: physicochemical; details: neutral to weakly acidic aqueous solution; rearranges to two isomers up to an equilibrium
Description: Aufgrund über Jahre geführter Untersuchungen sind die bekannten Methoden nicht geeignet, ein stabiles pharmazeutisches Präparat herzustellen. […] Es lagert sich bis zu einem Gleichgewicht in zwei isomere Substanzen um. Zwar wirken diese im Prinzip gleichartig, jedoch dürfen sie aus gesundheitsrechtlichen Gründen im Endprodukt nur geringfügig vorhanden sein.

| Compound | Löslichkeit in Alkohol ([1]; Alkohol) | Löslichkeit in Wasser [1] | Löslichkeit in unpolaren organischen Lösungsmitteln ([1]; unpolare organische Lösungsmittel) | Haut- und Schleimhaut-Verträglichkeit ([2]; known property) | Toxizität bei Resorption ([2]; known property) | toxische Wirkung ([2]; use as 0,1% gargle solution over 20 years) | Haltbarkeit in wässeriger Lösung [3] |
| --- | --- | --- | --- | --- | --- | --- | --- |
| CCCCC(CC)CN1CN(CC(CC)CCCC)CC(C)(N)C1 (centres unmarked) [Hexetidin, 1,3-Bis-(2-ethylhexyl)-hexahydro-5-methyl-5-pyrimidinamin] | leicht löslich | nur schwer löslich | leicht löslich | gute | geringe | nie beobachtet | nur kurzfristig haltbar |
| CCCCC(CC)CN1CN(CC(CC)CCCC)CC(C)(N)C1 (centres unmarked) [Hexetidinsalz] |  | leicht löslich |  |  |  |  |  |
